In US8957215B2, “Heteroaryl substituted benzothiazoles” (Navidea Biopharmaceuticals, Inc., priority 2006, dated 2015):
Like-named read-outs stand apart in the source and are kept apart here. Values belong to the compound of their own block, whether it stands above or below them.

Columns and labels:
[1] = during the first 5-10 min, reference radioligands; cited from earlier work
synthetic Aβ 1-40 [2] = target: T1, synthetic Aβ 1-40 (Homo sapiens, UniProt P05067); assay: Competition binding assay with [^3H]PIB as radioligand
T1 construct: using synthetic Aβ 1-40 in 2.7 nM of [^3H]PIB
T1 sequence (P05067 672-711 limits assumed): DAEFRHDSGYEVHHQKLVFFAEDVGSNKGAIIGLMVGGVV
Method: (§1) Competition binding was performed in 384-well FB filter plates using synthetic Aβ 1-40 in 2.7 nM of [^3H]PIB (or another ^3H-labeled radioligand when so mentioned) in phosphate buffer at pH 7.5, by adding various concentrations of non-radioactive compounds originally dissolved in DMSO. The binding mixture was incubated for 30 min at room temperature, followed by vacuum filtration, and subsequentially by washing twice with 1% Triton-X100. Scintillation fluid was thereafter added to the collected Aβ 1-40 on the filter plate, and the activity of the bound remaining radioligand ([^3H]PIB or another ^3H-labeled radioligand) was measured using 1450 Microbeta from PerkinElmer.
Specific binding was determined according to the competition binding assay described herein. The determined IC50's in the competition binding assays (using [^3H]PIB as radioligand) of 5 compounds of the present invention are shown in Table 1. Results (activity of remaining [^3H]PIB versus increasing concentration of non-labeled compounds) from typical competition assay experiments are exemplified in FIG. 1. In a similar way, competition studies with ^3H-labeled heteroaryl substituted benzthiazole derivates of the present invention were also conducted. Such results, from a typical competition study, are examplified in FIG. 2. PIB and 2-[6-(methylamino)pyridin-3-yl]-1,3-benzothiazol-6-ol (a novel compound of the present invention) both displaced [N-methyl-^3H3]-2-(6-methylamino-pyridin-3-yl)-benzothiazol-6-ol (a ^3H-labeled compound of the present invention). The binding of [N-methyl-^3H3]-2-(6-methylamino-pyridin-3-yl)-benzothiazol-6-ol (example 32) to Aβ1-40 fibrils, was reversible as evident from the dissociation experiment exemplified in FIG. 3.

[3] = In vivo rat brain entry study; settings: i.v.
Method: Brain exposure after i.v administration was determined in rat brains using cassette dosing. Four different compounds were dosed followed by plasma and brain sampling at 2 and 30 minutes after the dosing. 2 to 30 min brain concentration ratios, and percentage of total of injected dose after 2 mins found in brain, were calculated. The compound concentrations were determined by analysis of protein precipitated plasma samples by reversed-phase liquid chromatography coupled to a electrospray tandem mass spectrometer.
FIG. 4. Brain and plasma concentration at 2 and 30 minutes after i.v. administration in rat of PIB (upper graph “A”), and 2-[6-(methylamino)pyridin-3-yl]-1,3-benzothiazol-6-ol (lower graph “B”), a compound of the present intervention (example 27).

[4] = tested on: amyloid plaques in post-mortem human AD brains; assay: Binding to amyloid plaques in post-mortem human AD brain sections
Method: (§2) Slide-mounted brain sections (10 μm) from APP/PS1 transgenic mice were collected at the level of the lateral septum (bregma+0.98 mm; see Paxinos and Franklin, 2001). Human cortical sections (7 μm) from two AD patients and 1 control subject were obtained from a Dutch tissue bank.
(§3) Sections were preincubated for 30 minutes at room temperature in 50 mM Tris HCl (pH 7.4) in the presence or absence of 1 μM PIB. Sections were transferred to buffer containing tritium-labeled compound (1 nM) with or without PIB (1 μM) and incubated for 30 minutes at room temperature. Incubation was terminated by 3 consecutive 10 minute rinses in buffer (1° C.) followed by a rapid rinse in distilled water (1° C.). Sections were air dried in front of a fan. Dried sections and plastic tritium standards (Amersham microscales-^3H) were apposed to phosphoimage plates (Fuji) in a cassette and exposed overnight. The following morning, the image plates were processed with a Fuji phosphoimager (BAS 2500) using BAS Reader software. The resulting image was converted to TIF format using Aida software, optimized with Adobe Photoshop (v 8.0) and quantified using Image-J (NIH). Data were statistically analyzed using Excel.

[5] = target: T2, human synthetic Aβ 1-40 fibrils (Homo sapiens, UniProt P05067); assay: Dissociation experiment; type: binding; settings: FIG. 3
T2 construct: 2 μM human synthetic Aβ 1-40 fibrils in phosphate buffer pH 7.5
T2 sequence (P05067 672-711 limits assumed): as above
Method: Dissociation experiments were performed in 96-well polypropylene deep well plates. 2 μM human synthetic Aβ 1-40 fibrils in phosphate buffer pH 7.5, or buffer alone as control, was incubated with 9 nM of a ^3H-labeled radioligand of the present invention for 4 h at room temperature. Dissociation was started at different time points, by the addition of an equal volume of a non-labeled compound of the present invention, or a reference compound (10 μM), in 4% DMSO in phosphate buffer at pH 7.5. The radioactivity still bound to the Aβ 1-40 fibrils at the end of the incubation was detected on FB filters after filtration in a Brandel apparatus using a wash buffer containing 0.1% Triton-X100.
FIG. 3. Example of a dissociation experiment: Dissociation of [N-methyl-^3H3]-2-(6-methylamino-pyridin-3-yl)-benzothiazol-6-ol (example 32) from Aβ1-40 fibrils over time.

[6] = tested on: amyloid plaques in APP/PS1 transgenic mice brain sections; assay: Binding to amyloid plaques in APP/PS1 transgenic mouse brain sections; settings: 1 nM tritium-labeled compound
Method: as §2, §3

[7] = tested on: amyloid plaques in APP/PS1 mouse brain; type: in vivo
Method: Naïve, awake mice were restrained and intravenously infused via the tail vein with either a tritium labeled compound of the present invention, or a tritium labeled reference compound via the tail vein. In one type of experiment, the animals were rapidly anesthetized with isofluorane and decapitated twenty minutes after compound administration (1 mCi). In another type of experiment, mice were given 1 mCi of a compound and were anesthetized and decapitated at a timepoint of 20, 40 or 80 minutes after administration. Brains were removed and frozen with powdered dry ice. Brains were sectioned (10 μm) in the coronal plane at the level of the striatum with a cryostat, thaw-mounted onto superfrost microscope slides and air-dried.
Methods designed to optimize the imaging of bound ligand after in vivo administration were thereafter employed. To selectively reduce unbound radioactivity levels, one-half of the sections were rinsed (3×10 minutes) in cold (1° C.) Tris buffer (50 mM, pH7.4) followed by a rapid rinse in cold (1° C.) deionized water. Sections were then air dried in front of a fan. Rinsed as well as unrinsed sections and tritium standards were exposed to phosphoimage plates (Fuji). Phosphoimage plates were processed with a Fujifilm BAS-2500 phosphoimager using BAS Reader software.

synthetic Aβ 1-40 [8] = target: T1, synthetic Aβ 1-40; assay: Competition binding assay with [N-methyl-^3H3]-2-(6-methylamino-pyridin-3-yl)-benzothiazol-6-ol as radioligand; settings: ^3H-labeled example 32 as radioligand, FIG. 2
Method: as §1
Specific binding was determined according to the competition binding assay described herein. The determined IC50's in the competition binding assays (using [^3H]PIB as radioligand) of 5 compounds of the present invention are shown in Table 1. Results (activity of remaining [^3H]PIB versus increasing concentration of non-labeled compounds) from typical competition assay experiments are exemplified in FIG. 1. In a similar way, competition studies with ^3H-labeled heteroaryl substituted benzthiazole derivates of the present invention were also conducted. Such results, from a typical competition study, are examplified in FIG. 2. […]

[9] = Whole body PET measurement in monkey; type: in vivo
Method: Whole body PET-measurement was performed in one monkey. A sterile physiological phosphate buffer (pH=7.4) solution containing 51 MBq of [^11C]PIB in the first measurement, and 57 MBq of a [^11C]-labelled compound of the present invention in the second measurement, was injected as a bolus into a sural vein over a period of 5 seconds with simultaneous start of PET-data acquisition that lasted for 87 min. The time between radioligand injections was 2 h. PET measurements were assessed visually by creating planar maximum intensity projection images of decay uncorrected data and also converting decay corrected images to ones containing parts-per-million (ppm) values of the total injected radioactivity.

[10] = Brain PET study in monkey; type: in vivo
Method: The monkey PET study aimed to assess and compare a [^11C]-labelled compound of this invention to [^11C]PIB regarding measures of brain availability, non-specific binding in the brain, whole body biodistribution, elimination and exploration of regional differences in uptake. Five brain PET measurements were performed in three monkeys under anesthesia. In each PET-measurement a sterile physiological phosphate buffer (pH=7.4) solution containing 52-55 MBq of either a [^11C]-labelled compound of this invention, or [^11C]PIB, was injected as a bolus into a sural vein over a period of 5 seconds with simultaneous start of PET-data acquisition. Radioactivity in brain was measured continuously for 93 minutes. Only [^11C]PIB measurement was performed in the first monkey. In the other two monkeys a [^11C]-labelled compound of the present invention was measured first and [^11C]PIB was administered in a subsequent measurement. The time between radioligand injections was approx. 2 h. PET measurements were evaluated with respect to the time-activity curve for the whole brain expressed as percent injected radioactivity dose.

SMILES: CCN1CCC[C@H]1CNC(=O)c1c(O)c(Cl)cc(Cl)c1O[11CH3] (racemic) [[^11C]raclopride]
fraction of the total injected radioactivity present in the brain [1]: 1-2%

SMILES: CNc1ccc(-c2nc3ccc(OC)cc3s2)cn1 [Example 25, 5-(6-Methoxy-1,3-benzothiazol-2-yl)-N-methylpyridin-2-amine]
IC50 (synthetic Aβ 1-40 [2]): 58 nM

SMILES: [3H]C([3H])([3H])Nc1ccc(-c2nc3ccc(O)cc3s2)cn1 [Example 32, [N-Methyl-^3H3]-2-(6-Methylamino-pyridin-3-yl)-benzothiazol-6-ol]
levels of nonspecific binding compared to [^3H]PIB ([4]; human cortical sections): substantially reduced | labeling of dense core plaques ([4]; human cortical sections, 1 nM tritium-labeled compound): labeled dense core plaques | specific binding levels greater than binding observed with [^3H]PIB ([4]; superficial gray layers of human cortex): approximately 40% | reversibility of binding to Aβ1-40 fibrils [5]: reversible | labeling of dense core plaques [6]: labeled dense core plaques | cortical plaque labeling in rinsed tissue ([7]; 20 minutes after administration): highest | cortical plaque labeling in rinsed tissue ([7]; 80 minutes after administration): barely detectable | labeling of cortical structures after in vivo administration ([7]; APP/PS1 mice, decapitation 20 minutes after administration): labeled cortical structures | effect of in vitro rinse on levels in corpus callosum ([7]; corpus callosum (white matter)): dramatically reduced | reduction of nonspecific binding by in vitro rinse ([7]; striatum (gray matter)): 78.5%

SMILES: [11CH3]Nc1ccc(-c2nc3ccc(O)cc3s2)cc1 [[^11C]PIB, reference compound]
elimination routes [9]: urinary excretion and hepatobiliary secretion

SMILES: [11CH3]Nc1ccc(-c2nc3ccc(O)cc3s2)cn1 [^11C-Example 1, [N-Methyl-^11C]-2-(6-Methylamino-pyridin-3-yl)-benzothiazol-6-ol]
brain concentration after the peak ([10]; monkey): declined rapidly | unspecific binding as compared to [^11C]PIB ([10]; monkey brain, time points of relevance for PET-detection): significantly lower | brain exposure ([10]; monkey, FIG. 12): 1-3 % of total injected radioactivity | time of peak brain uptake ([10]; monkey, after injection): first minute | elimination as compared to [^11C]PIB [9]: faster elimination | elimination routes [9]: urinary excretion and hepatobiliary secretion

Next, values leading:

IC50 (synthetic Aβ 1-40 [2]): 176 nM
SMILES: CN1CCN(c2ccc(-c3nc4ccc(O)cc4s3)cn2)CC1 [Example 6, 2-[6-(4-Methylpiperazin-1-yl)pyridin-3-yl]-1,3-benzothiazol-6-ol Acetate]

IC50 (synthetic Aβ 1-40 [2]): 170 nM
SMILES: COc1ccc(-c2nc3ccc(C(N)=O)cc3s2)cn1 [Example 9, 2-(6-Methoxypyridin-3-yl)-1,3-benzothiazole-6-carboxamide]

IC50 (synthetic Aβ 1-40 [2]): 186 nM
SMILES: CC(=O)Nc1ccc2nc(-c3ccc(N4CCN(C)CC4)nc3)sc2c1 [Example 15, N-{2-[6-(4-Methylpiperazin-1-yl)pyridin-3-yl]-1,3-benzothiazol-6-yl}acetamide]

2 minute to 30 minute brain concentration ratio [3]: > 15 | brain uptake value ([3]; 2 min time point): 1 % of the injected dose
SMILES: CNc1ccc(-c2nc3ccc(O)cc3s2)cn1 [Example 27, 2-[6-(Methylamino)pyridin-3-yl]-1,3-benzothiazol-6-ol]

displacement of [N-methyl-^3H3]-2-(6-methylamino-pyridin-3-yl)-benzothiazol-6-ol (synthetic Aβ 1-40 [8]): displaced
SMILES: CNc1ccc(-c2nc3ccc(O)cc3s2)cc1 [PIB]
